Values joined by “and” are separate entries in the source; they are usually repeats but may differ in a detail not shown here. Equal entries are not always repeated.
Columns and labels:
[1] = Urine and faecal phosphate excretion in rats fed binder in diet; conditions: rat, in vivo
[2] = Phosphate binding capacity Method 2: as Method 1 but 20 mmol l^-1 phosphate buffer, increasing weight of compound
[3] = rat, in vivo
[4] = Measurement of phosphate binding M4: 1 g in 25 ml 40 mmol l^-1 phosphate buffer, pH 3-8 (Examples 3 and 4)
[5] = Body weight and faecal hydration of rats fed binder in diet; conditions: rat, in vivo
Experimental: Total faecal samples from each animal were mixed to ensure a homogeneity and duplicate one gram aliquots weighed. The percentage hydration of the stool was calculated following freeze drying to constant weight.
Following feeding with the modified diets for 7 days, animals were transferred to metabowls for collection of total 24 hour faecal and urine excretion.

[6] = Phosphate binding capacity, 3.2 mmol compound in 25 ml 20 mmol l^-1 phosphate buffer (Example 1)
Experimental: In Table 1, the values indicate respective percentage phosphate binding capacity at each of pH3, pH7 and pH8, n indicating the number of trials made for each compound.
The phosphate binding capacity was measured by mixing 3.2 mmol of the compound with 25 ml of 20 mmol l^−1 phosphate buffer for 30 min at 25° C. For all compounds except CT2000, which compounds were dry powders, the compounds were merely weighed and dosed. For CT2000, the slurry was dosed in an amount such as to give an equivalent of 1 g of a powder dried to constant weight at 40° C. Sodium phosphate and sodium hydrogen phosphate were mixed to provide respective phosphate solutions at pH3, 7 and 8 (HCl being added to provide pH3). […] The results are shown in Table 1, in which n refers to the number of observations and the values as the % of phosphate precipitated out of solution, calculated as follows:
where • x=mmol phosphate in solution after precipitation; and • y=mmol phosphate in solution without precipitation.

[7] = Phosphate binding in food, Method 3 (food slurry in 0.01 M HCl)
[8] = 3.2 mmol compound, 25 ml 20 mmol l^-1 phosphate buffer, 30 min, 25° C.

Compound | Total faecal phosphate [1] | Urine phosphate [1] [µmol] | Serum aluminium [3] [µmol/L] | Serum calcium [3] | Serum iron [3] | Urine aluminium [3] [µg] | increase in phosphate binding at pH 3 compared to pH 8 [4] [fold] | Percentage phosphate binding at pH 3 ([4]; pH 3) | Percentage phosphate binding at pH 5 ([4]; pH 5) | Percentage phosphate binding at pH 7 ([4]; pH 7) | Percentage phosphate binding at pH 8 ([4]; pH 8) | faecal hydration compared to the controls [5] | mean weight gain [5] | percentage phosphate binding capacity, pH 3 [6] [%] | percentage phosphate binding capacity, pH 7 [6] [%] | percentage phosphate binding capacity, pH 8 [6] [%] | also measured
[Mg+2].[OH-].[OH-] [Mg(OH)2, magnesium hydroxide] | 183 ± 17 μmol g^−1 dry weight faeces | 65 ± 53 | 0.35 ± 0.08 | 2.58 ± 0.05 (n = 3) mmol l^−1 | 29.4 ± 7.9 (n = 3) mmol l^−1 | 0.17 ± 0.07 | 3.7 | 81% and 87% | 82% and 80% | 54% and 58% | 17% and 28% | none of the animal groups treated with Mg(OH)2, CT 100 or CTFeMg showed an increase in faecal hydration compared to the controls | 38-53 grams | 61.1 ± 7.5 | 45.7 ± 5.9 | 12.5 ± 3.7 | phosphate binding at pH 3, comparison [2]: best phosphate binder; urinary magnesium excretion, comparison between groups [3]: significantly higher than the control group or animals treated with any other binder; phosphate binding in food, comparison [7]: not the best when used in food
Al2Mg6(OH)16CO3.4H2O [CT100] | – | – | – | – | – | – | – | – | – | – | – | none of the animal groups treated with Mg(OH)2, CT 100 or CTFeMg showed an increase in faecal hydration compared to the controls | 38-53 grams | – | – | – | –
O.O.O=S(=O)([O-])[O-].[Ca+2] [CaSO4•2H2O, Calcium Sulphate Dihydrate] | – | – | – | – | – | – | – | – | – | – | – | – | – | – | – | – | Percentage phosphate bound at pH 3 ([4]; pH 3): 0%; Percentage phosphate bound at pH 5 ([4]; pH 5): 0%; Percentage phosphate bound at pH 7 ([4]; pH 7): 57%; Percentage phosphate bound at pH 8 ([4]; pH 8): 89%
O=C([O-])[O-].[Ca+2] [CaCO3, calcium carbonate] | 213 ± 16 μmol g^−1 dry weight faeces | 857 ± 25 | 0.33 ± 0.05 | 2.93 ± 0.09 (n = 4)β mmol l^−1 | 41.9 ± 10.8 (n = 4) mmol l^−1 | 0.50 ± 0.21 | 5.9 | 69% and 72% | 63% and 70% | 30% and 43% | 8% and 16% | – | 38-53 grams | 15.3 ± 0.5 | 9.7 ± 1.8 | 2.4 ± 1.8 | –
[Ce+3].[OH-].[OH-].[OH-] [Ce(OH)3] | – | – | – | – | – | – | – | – | – | – | – | – | – | – | – | – | percentage phosphate binding capacity, pH 3 [6, 8]: 69.8 ± 7.5%; percentage phosphate binding capacity, pH 7 [6, 8]: 57.8 ± 8.9%; percentage phosphate binding capacity, pH 8 [6, 8]: 60.5 ± 1.5%

— US20140120180A1, “METAL COMPOUNDS MIXED OR SULPHATED, AS PHOSPHATE BINDERS” (CYTOCHROMA DEVELOPMENT INC., priority 1997, published 2014)
